In patent US9333219B2, “Method to treat or prevent herpesvirus infections” (ALBERT EINSTEIN COLLEGE OF MEDICINE OF YESHIVA UNIVERSITY, priority 2012, dated 2016):
Entries after “also recorded” stand apart in the source; their conditions may differ.

Assays:
[1] = system: HSV-1 and HSV-2; conditions: prior studies (Cheshenko, 2003; 2007); cited from earlier work
[2] = system: HSV-2; experiment: VP16 nuclear transport as surrogate of viral entry; format: cell-based; conditions: 1 μM, treated immediately prior to infection, 1 pfu/cell
Procedure: (§1) FIG. 3A-3C: Silencing of Akt inhibits viral entry independent of viral binding. Transfected CaSki cells were exposed to serial dilutions of HSV-2(G) at the moi (pfu/cell) indicated for 5 h at 4° C. The cell-bound viral particles were detected by analyzing Western blots of cell lysates for gD; blots were also probed with antibodies to total Akt (to assess silencing) and β-actin (control for protein loading) (a). Cells were transfected with siControl or siAkt123 and silencing confirmed by preparing Western blots of cell lysates 48 h post-transfection and probing for total Akt and β-actin expression (b). The siRNA-transfected cells were inoculated with HSV-2(G) and nuclear extracts were prepared and analyzed for the presence of the viral tegument protein VP16 by Western blotting; blots were probed with antibodies to histone-H1 as a nuclear extract control. […]
FIG. 4A-4E: Akt is required for HSV-induced calcium release and treatment with the ionophore, ionomycin, partially overcomes the block to infection in Akt-silenced cells. […] Transfected cells were loaded with fura-2, infected with purified HSV-2 (moi 2 pfu/cell) or mock-infected and the kinetics of Ca^2+ response monitored. The mean intracellular [Ca^2+] for 5×10^4 cells over the first 30 minutes was quantified; control cells were also pretreated with wortmannin or miltefosine and then infected with HSV-2 (b). […]

[3] = system: HSV-induced Ca2+ response; experiment: Calcium kinetic measurements (fura-2 fluorometry) in CaSki cells; format: cell-based, human
Procedure: FIG. 4A-4E: Akt is required for HSV-induced calcium release and treatment with the ionophore, ionomycin, partially overcomes the block to infection in Akt-silenced cells. CaSki cells were loaded with Calcium Green 72 h post-transfection with the indicated siRNA and synchronously mock-infected or infected with purified HSV-2(G). Live images were acquired 3 min post-temperature shift to 37° C. For these xyz images, the plasma membranes are red (medium gray in grayscale), nuclei are blue (darkest gray in grayscale), and Ca^2+ is green (lighter gray in grayscale); colocalization of Ca^2+ and plasma membrane is yellow (lightest gray in grayscale). Representative images from 4 independent experiments are shown; the grid bars indicate a distance of 9.2 micrometers (a). Transfected cells were loaded with fura-2, infected with purified HSV-2 (moi 2 pfu/cell) or mock-infected and the kinetics of Ca^2+ response monitored. The mean intracellular [Ca^2+] for 5×10^4 cells over the first 30 minutes was quantified; control cells were also pretreated with wortmannin or miltefosine and then infected with HSV-2 (b). The cumulative [Ca^2+] released over 1 hour was calculated from 4 wells, each containing 5×10^4 cells (mock-infected, HSV-2 infected in the absence or presence of wortmannin or miltefosine, or following treatment of uninfected cells with 1 μM of ionomycin) (c). […]

[4] = system: Akt; experiment: Western blot of HSV-induced Akt phosphorylation (pS473-Akt1/2/3) in HaCAT cells; format: cell-based, human; conditions: HaCAT cells pretreated with drug, HSV-2(G) moi 10 pfu/cell
[5] = system: HSV-1 K26GFP; experiment: Viral entry by confocal microscopy with HSV-1 K26GFP in CaSki cells; format: cell-based; conditions: CaSki cells pretreated with drug
Procedure: as §1
Two independent approaches were applied to determine if Akt contributes to viral entry. […] After incubation for 45 minutes, nuclear extracts were prepared and evaluated for VP16 by Western blot; histone H1 was included as a control for the nuclear extracts (FIG. 3b). […] Viral capsids were readily detected in the majority of siControl cells (73% and 82% 1 and 4 h pi, respectively), whereas viral capsids were detected in few siAkt cells (7% and 5.5%) (FIG. 3c). […]
Confocal microscopy: Viral entry was also monitored by confocal microscopy. […]

[6] = system: HSV-2; experiment: HSV-2 plaque assay after pretreatment with Akt pharmacological inhibitors; format: cell-based; conditions: CaSki, SK-N-SH or HaCAT cells pretreated 15 min with drug, infected with HSV-2 1 h, plaques counted 48 h pi
Procedure: FIG. 8A-8B: Pharmacological inhibitors of Akt signaling inhibit HSV-2 plaque formation. Cells (CaSki, SK-N-SH, or HaCAT) cells were pretreated for 15 minutes with each of the indicated drugs and then challenged with serial dilutions of HSV-2. The inoculum (and drug) were removed after 1 h, and then cells were overlaid with fresh medium; plaques were counted after 48 h incubation. Results are presented as percent pfu relative to control wells (treated with 0.1% DMSO) (a). Alternatively, cells were treated for 24 h with drugs alone (0.01% nonoxynol-9 (N9) is included as a positive toxicity control) and then cell viability determined by MTT assay (b).
Akt is a potential target for HSV treatment: A series of Akt pharmacological inhibitors being developed as adjunct therapy for cancer including MK-2206, an allosteric Akt inhibitor (Yap, 2011); inhibitor VIII, which binds to the pleckstrin homology domain of Akt and prevents subsequent phosphorylation as well as translocation of Akt to the plasma membrane (Calleja, 2009); miltefosine, a drug licensed for treatment of leishmaniasis and other protozoal infections that blocks Akt phosphorylation (Ruiter, 2003), and perifosine, a structural analogue of miltefosine in Phase 3 clinical trials for treatment of several cancers (Richardson, 2012) were tested. […]

[7] = system: HSV-2(4674); experiment: Ganglion-epithelial cell ex vivo co-culture model
Procedure: Sacral ganglia were extracted from mice on day 7 following intravaginal infection with the indicated viral inoculum and co-cultured ex vivo with Vero cells in medium containing DMSO or 20 μM miltefosine. Culture supernatants were collected on the indicated days post-co-culture and viral growth monitored by plaque assay. Results are presented as pfu/ml (mean±sd) obtained from two independent experiments; each with sacral ganglia (d).
Sacral ganglia were removed from mice that had been vaginally infected with 5×10^4 or 5×10^5 pfu of HSV-2 on Day 7 and were then co-cultured with Vero cells in the absence or presence of 20 μM miltefosine. Media was removed on the indicated days post-co-culture and assayed for the presence of infectious virus by titering on Vero cells.
Ganglion-epithelial cell ex vivo co-cultures: Seven days pi, sacaral ganglia were excised from animals that been intravaginally infected with 5×10^4 or 5×10^5 pfu of HSV-2(4674). The tissue was co-cultured with confluent Vero cells in 60-mm Petri dishes containing DMEM supplemented with 0.1% DMSO (control) or with 20 μM of miltefosine. Culture supernatants were collected on days 2-7 post-co-culture and concentration of virus released into the media determined by plaque assay on Vero cells.

[8] = system: HSV-2 clinical isolates DT1 and DT2; conditions: CaSki cells pretreated
Procedure: CaSki cells were pretreated with control buffer or with miltefosine prior to Infection with an acyclovir susceptible (DT1) or acyclovir-resistant (DT2) isolate. Alternatively cells were pretreated with control buffer and acyclovir (dose) was added to the overlay media.
The HSV-2 clinical isolates 4674, DT1 (acyclovir susceptible) and DT2 (acyclovir resistant) were propagated on CaSki cells (Segarra, 2011)(Oram, 2000).
For plaque assays, cells were exposed to serial dilutions of virus for 1 h and then washed three times with phosphate buffered saline (PBS), pH 7.4, and overlaid with 199 medium containing 1% pooled human IgG. Plaques were counted by immunoassay using an anti-human IgG antibody peroxidase conjugate (Calbiochem) (Herold, 1991). In select experiments cells were pretreated with drugs that block Akt signaling or acyclovir was added to the overlay medium.

SMILES: NCCOB(c1ccccc1)c1ccccc1 [2-aminoethoxydiphenyl borate]
- increase in [Ca2+] triggered by HSV [1]: blocked
- viral entry [1]: blocked

SMILES: C[C@H](CCC(=O)O)C[C@H](C)C[C@H](C)C(=O)/C=C(\O)[C@H](C)C[C@H](C)C/C=C/[C@@H](C)[C@@H](O)[C@@H](C)[C@@H](O)C[C@@H]1CC[C@@](C)([C@H]2CC[C@@](C)([C@@H](C)O)O2)O1 [ionomycin]
- susceptibility to HSV entry in Akt-silenced cells (nuclear VP16) [2]: partially restored the susceptibility to HSV entry
- Ca2+ release from siRNA-transfected cell populations ([3]; 1 μM, confocal imaging and fluorometry): triggered the release of a comparable amount of Ca2+

SMILES: CCCCCCCCCCCCCCCCOP(=O)([O-])OCC[N+](C)(C)C [miltefosine, 2-(hexadecoxy-oxido-phosphoryl)oxyethyl-trimethyl-azanium]
- viral induced phosphorylation of Akt [4]: blocked viral induced phosphorylation of Akt
- viral entry (confocal imaging with GFP labeled virus) [5]: prevented viral entry
- inhibition of HSV infection (plaque formation, pfu relative to control wells) [6]: most potent
- HSV-induced Ca2+ response ([3]; CaSki cells pretreated with drug (wortmannin 5 nM), HSV-2(G) moi 2 pfu/cell, first hour): blocked the HSV-induced Ca^2+ response; also recorded: prevented viral induced Ca^2+ response
- cytotoxicity in ganglion ex vivo co-culture ([7]; cells cultured in drug for one week): No cytotoxicity was observed
- viral amplification in ganglion explant co-culture ([7]; mouse sacral ganglia day 7 after vaginal HSV-2, co-cultured with Vero cells, 20 μM): blocked viral amplification
- activity against acyclovir susceptible and acyclovir resistant viruses in a plaque assay [8]: active against acyclovir susceptible and acyclovir resistant viruses
